Results reported in PubChem BioAssay AID248 (DTP/NCI, 2004).
Where “and” joins values, the source holds several entries; their conditions need not be identical. Equal entries are not always repeated. Toxic doses and inconclusive results are not listed.

Test system: L1210 leukemia ip in BDF1 mice, survival T/C
Test: NCI In Vivo Anticancer Drug Screen. Data for tumor model L1210 Leukemia (intraperitoneal) in B6D2F1 (BDF1) mice
Conditions: endpoint: mean survival time, higher = longer survival
How it was run: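 Transplantable tumor model; survival measured in treated vs vehicle control mice. Value = treated/control.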

[1] = dose: 100.0 mg/kg/injection, schedule: Q04DX003 (ip), vehicle: Klucel (hydroxypropylcellulose) (HPC)
[2] = dose: 200.0 mg/kg/injection, schedule: Q04DX003 (ip), vehicle: Klucel (hydroxypropylcellulose) (HPC)
[3] = dose: 400.0 mg/kg/injection, schedule: Q04DX003 (ip), vehicle: Klucel (hydroxypropylcellulose) (HPC)
[4] = dose: 75.0 mg/kg/injection, schedule: Q01DX001 (ip), vehicle: saline
[5] = dose: 150.0 mg/kg/injection, schedule: Q01DX001 (ip), vehicle: saline
[6] = dose: 100.0 mg/kg/injection, schedule: Q01DX009 (ip), vehicle: saline with Tween-80
[7] = dose: 100.0 mg/kg/injection, schedule: Q04DX003 (ip), vehicle: saline with Tween-80
[8] = dose: 200.0 mg/kg/injection, schedule: Q01DX009 (ip), vehicle: saline with Tween-80
[9] = dose: 200.0 mg/kg/injection, schedule: Q04DX003 (ip), vehicle: saline with Tween-80
[10] = dose: 400.0 mg/kg/injection, schedule: Q01DX009 (ip), vehicle: saline with Tween-80
[11] = dose: 400.0 mg/kg/injection, schedule: Q04DX003 (ip), vehicle: saline with Tween-80
[12] = dose: 25.0 mg/kg/injection, schedule: Q01DX009 (ip), vehicle: Klucel (hydroxypropylcellulose) (HPC)
[13] = dose: 50.0 mg/kg/injection, schedule: Q01DX009 (ip), vehicle: Klucel (hydroxypropylcellulose) (HPC)
[14] = dose: 100.0 mg/kg/injection, schedule: Q01DX009 (ip), vehicle: Klucel (hydroxypropylcellulose) (HPC)
[15] = dose: 100.0 mg/kg/injection, schedule: Q04DX002 (ip), vehicle: Klucel (hydroxypropylcellulose) (HPC)
[16] = dose: 200.0 mg/kg/injection, schedule: Q01DX009 (ip), vehicle: Klucel (hydroxypropylcellulose) (HPC)
[17] = dose: 200.0 mg/kg/injection, schedule: Q04DX002 (ip), vehicle: Klucel (hydroxypropylcellulose) (HPC)
[18] = dose: 400.0 mg/kg/injection, schedule: Q01DX009 (ip), vehicle: Klucel (hydroxypropylcellulose) (HPC)
[19] = dose: 400.0 mg/kg/injection, schedule: Q04DX002 (ip), vehicle: Klucel (hydroxypropylcellulose) (HPC)
[20] = dose: 100.0 mg/kg/injection, schedule: Q01DX001 (ip), vehicle: saline
[21] = dose: 200.0 mg/kg/injection, schedule: Q01DX001 (ip), vehicle: saline
[22] = dose: 400.0 mg/kg/injection, schedule: Q01DX001 (ip), vehicle: saline

In the case of `Fc1cccc2c1[nH]c1cc3ccncc3cc12`, the T/C [1] is reported as 98 % of control, the T/C [2] is reported as 90 % of control and the T/C [3] is reported as 93 % of control.

`C[n+]1cccc(C(=O)NCCc2c[nH]c3ccccc23)c1` was tested, and the T/C [4] was 96 % of control and the T/C [5] was 104 % of control.

`CC(=O)N1C(=O)NC(=O)C1(C)c1ccco1` (centres undefined) was tested, and the T/C [6] was 103 % of control, the T/C [7] was 94 % of control and the T/C [8] was 100 % of control. For the same molecule, the T/C [9] was 97 % of control, the T/C [10] was 97 % of control and the T/C [11] was 105 % of control.

With `CC1=CC(=C2C=C(C)C(=O)C(C)=C2)C=C(C)C1=O` the T/C (dose: 100.0 mg/kg/injection, schedule: Q01DX001 (ip), vehicle: saline with Tween-80) was 87 % of control, the T/C [7] was 94 % of control and 102 % of control and the T/C [9] was 94 % of control and 96 % of control. For the same molecule, the T/C (dose: 400.0 mg/kg/injection, schedule: Q01DX001 (ip), vehicle: saline with Tween-80) was 87 % of control and the T/C [11] was 94 % of control and 89 % of control.

With `O=S(Cc1ccc(Cl)cc1)c1ccc(Cl)cc1` (centres undefined) the T/C [1] was 97 % of control, the T/C [2] was 90 % of control and the T/C [3] was 104 % of control.

For `CC(=O)Oc1cc2c(cc1OC(C)=O)C(=O)CCC=C2`, the T/C (dose: 25.0 mg/kg/injection, schedule: Q04DX003 (ip), vehicle: Klucel (hydroxypropylcellulose) (HPC)) was 104 % of control, the T/C (dose: 50.0 mg/kg/injection, schedule: Q04DX003 (ip), vehicle: Klucel (hydroxypropylcellulose) (HPC)) was 106 % of control and the T/C (dose: 100.0 mg/kg/injection, schedule: Q01DX009 (ip), vehicle: saline sonified) was 95 % of control. For the same molecule, the T/C [1] was 98 % of control and 115 % of control, the T/C (dose: 200.0 mg/kg/injection, schedule: Q01DX009 (ip), vehicle: saline sonified) was 97 % of control and the T/C [2] was 102 % of control. The T/C (dose: 400.0 mg/kg/injection, schedule: Q01DX009 (ip), vehicle: saline sonified) was 99 % of control and the T/C [3] was 100 % of control.

With `S=C(NCc1ccc(Cl)c(Cl)c1)NCc1ccc(Cl)c(Cl)c1` the T/C [12] was 103 % of control and the T/C [13] was 101 % of control.

In the case of `CC(C)OP(=O)(Cc1ccccc1CBr)OC(C)C`, the T/C (dose: 100.0 mg/kg/injection, schedule: Q04DX002 (ip), vehicle: saline) is reported as 109 % of control, the T/C (dose: 200.0 mg/kg/injection, schedule: Q04DX002 (ip), vehicle: saline) is reported as 102 % of control and the T/C (dose: 400.0 mg/kg/injection, schedule: Q04DX002 (ip), vehicle: saline) is reported as 109 % of control.

With `S=C(N/N=C/c1ccncc1)Nc1ccccc1` the T/C (dose: 100.0 mg/kg/injection, schedule: Q01DX001 (ip), vehicle: Klucel (hydroxypropylcellulose) (HPC)) was 96 % of control, the T/C [14] was 97 % of control and 100 % of control and the T/C [15] was 102 % of control and 91 % of control. The T/C [1] was 103 % of control, the T/C (dose: 200.0 mg/kg/injection, schedule: Q01DX001 (ip), vehicle: Klucel (hydroxypropylcellulose) (HPC)) was 100 % of control and the T/C [16] was 108 % of control. For the same molecule, the T/C [17] was 98 % of control and 102 % of control, the T/C [2] was 106 % of control and the T/C (dose: 400.0 mg/kg/injection, schedule: Q01DX001 (ip), vehicle: Klucel (hydroxypropylcellulose) (HPC)) was 98 % of control. For the same molecule, the T/C [18] was 94 % of control and 104 % of control, the T/C [19] was 97 % of control and 98 % of control and the T/C [3] was 94 % of control.

`Oc1cccc(/C=N/NC(=S)Nc2ccccc2)c1` was tested, and the T/C [14] was 104 % of control, the T/C [16] was 96 % of control and the T/C [18] was 93 % of control.

With `CCOC(=O)C12CCCC(C1=O)[N+](CC)(CC)CC2` (centres undefined) the T/C [4] was 100 % of control and the T/C [5] was 101 % of control.

With `CCN1CC1` (tested in a mixture with another compound) the T/C (dose: 1.56 mg/kg/injection, schedule: Q01DX001 (ip), vehicle: Klucel (hydroxypropylcellulose) (HPC)) was 101 % of control, the T/C (dose: 3.12 mg/kg/injection, schedule: Q01DX001 (ip), vehicle: Klucel (hydroxypropylcellulose) (HPC)) was 99 % of control and the T/C (dose: 6.25 mg/kg/injection, schedule: Q01DX001 (ip), vehicle: Klucel (hydroxypropylcellulose) (HPC)) was 104 % of control. The T/C (dose: 25.0 mg/kg/injection, schedule: Q01DX001 (ip), vehicle: other) was 111 % of control.

`COc1cc2c(cc1OCc1ccccc1)C(C#N)N(C(=O)c1ccccc1)C=C2` (centres undefined) was tested, and the T/C (dose: 25.0 mg/kg/injection, schedule: Q01DX009 (ip), vehicle: saline) was 98 % of control, the T/C (dose: 50.0 mg/kg/injection, schedule: Q01DX009 (ip), vehicle: saline) was 100 % of control and the T/C (dose: 100.0 mg/kg/injection, schedule: Q01DX009 (ip), vehicle: saline) was 93 % of control. For the same molecule, the T/C (dose: 200.0 mg/kg/injection, schedule: Q01DX009 (ip), vehicle: saline) was 86 % of control.

With `CC(CNC(=O)CCOS(C)(=O)=O)NC(=O)CCOS(C)(=O)=O` (centres undefined) the T/C (dose: 22.0 mg/kg/injection, schedule: Q01DX Z (ip), vehicle: carboxymethylcellulose (CMC)) was 104 % of control, the T/C (dose: 33.0 mg/kg/injection, schedule: Q01DX Z (ip), vehicle: carboxymethylcellulose (CMC)) was 111 % of control and the T/C (dose: 50.0 mg/kg/injection, schedule: Q01DX Z (ip), vehicle: carboxymethylcellulose (CMC)) was 100 % of control and 113 % of control. The T/C (dose: 76.0 mg/kg/injection, schedule: Q01DX Z (ip), vehicle: carboxymethylcellulose (CMC)) was 107 % of control, the T/C (dose: 113.0 mg/kg/injection, schedule: Q01DX Z (ip), vehicle: carboxymethylcellulose (CMC)) was 153 % of control and the T/C (dose: 170.0 mg/kg/injection, schedule: Q01DX Z (ip), vehicle: carboxymethylcellulose (CMC)) was 113 % of control.

For `O=C(NC1CCCCC1)NS(=O)(=O)c1ccc2c(c1)CCC2`, the T/C [20] was 100 % of control, the T/C [21] was 102 % of control and the T/C [22] was 96 % of control.

For `CC(C)CC(NC(=O)OCc1ccccc1)C(=O)O` (centres undefined), the T/C [6] was 87 % of control, the T/C [7] was 103 % of control and the T/C [8] was 97 % of control. For the same molecule, the T/C [9] was 101 % of control, the T/C [10] was 95 % of control and the T/C [11] was 97 % of control.

`N#Cc1ccccc1C(=O)O` was tested, and the T/C [20] was 95 % of control, the T/C [21] was 102 % of control and the T/C [22] was 96 % of control.

With `CCCCCCCCCCCCCCCCCC(=O)Oc1c(C(C)CC)cc([N+](=O)[O-])cc1[N+](=O)[O-]` (centres undefined) the T/C [15] was 89 % of control, the T/C [17] was 86 % of control and the T/C [19] was 105 % of control.

In the case of `O=[N+]([O-])c1cccc(/C=C/CCOc2ccccc2)c1`, the T/C (dose: 100.0 mg/kg/injection, schedule: Q01DX009 (sc), vehicle: olive oil, sesame oil, peanut oil) is reported as 97 % of control, the T/C (dose: 100.0 mg/kg/injection, schedule: Q04DX003 (sc), vehicle: olive oil, sesame oil, peanut oil) is reported as 101 % of control and the T/C (dose: 200.0 mg/kg/injection, schedule: Q01DX009 (sc), vehicle: olive oil, sesame oil, peanut oil) is reported as 114 % of control. For the same molecule, the T/C (dose: 200.0 mg/kg/injection, schedule: Q04DX003 (sc), vehicle: olive oil, sesame oil, peanut oil) was 100 % of control, the T/C (dose: 400.0 mg/kg/injection, schedule: Q01DX009 (sc), vehicle: olive oil, sesame oil, peanut oil) was 109 % of control and the T/C (dose: 400.0 mg/kg/injection, schedule: Q04DX003 (sc), vehicle: olive oil, sesame oil, peanut oil) was 103 % of control.

With `O=[N+]([O-])c1ccc2c(c1)C(C(Cl)(Cl)Cl)OC(C(Cl)(Cl)Cl)O2` (centres undefined) the T/C [14] was 95 % of control, the T/C [1] was 96 % of control and the T/C [16] was 95 % of control. The T/C [2] was 93 % of control, the T/C [18] was 95 % of control and the T/C [3] was 95 % of control.

`CCCC[As](=O)(O)CCO` was tested, and the T/C (dose: 25.0 mg/kg/injection, schedule: Q04DX003 (ip), vehicle: saline with Tween-80) was 102 % of control and the T/C (dose: 50.0 mg/kg/injection, schedule: Q04DX003 (ip), vehicle: saline with Tween-80) was 94 % of control.

For `CNC(=O)C(c1ccccc1)C(O)(c1ccccc1)c1ccccc1` (centres undefined), the T/C (dose: 50.0 mg/kg/injection, schedule: Q01DX001 (ip), vehicle: saline) was 96 % of control, the T/C [20] was 93 % of control and the T/C [21] was 98 % of control. The T/C [22] was 87 % of control.

In the case of `c1ccc([Si](c2ccccc2)(c2ccccc2)c2ccccc2)cc1`, the T/C [7] is reported as 90 % of control, the T/C [9] is reported as 90 % of control and the T/C [11] is reported as 88 % of control.

With `O=C1CCCC(=O)C1C(C[N+](=O)[O-])c1ccccc1` (centres undefined) the T/C (dose: 12.5 mg/kg/injection, schedule: Q01DX009 (ip), vehicle: Klucel (hydroxypropylcellulose) (HPC)) was 97 % of control, the T/C [12] was 93 % of control and the T/C [13] was 90 % of control. The T/C [14] was 88 % of control and the T/C [1] was 98 % of control.
